Data: ChEMBL document CHEMBL1275576, “In vitro activity of tomopenem (CS-023/RO4908463) against anaerobic bacteria” (Antimicrob Agents Chemother, 2009)

How the values were obtained:
Bacteroides fragilis [1] = assay: Antimicrobial activity against Bacteroides fragilis ATCC 25285 by agar dilution method in presence of 5% laked sheep blood; assay type: functional; conditions: NCTC 9343
Prevotella bivia = assay: Antimicrobial activity against Prevotella bivia ATCC 29303 by agar dilution method in presence of 5% laked sheep blood; assay type: functional; conditions: DSM 20514
Clostridioides difficile = assay: Antimicrobial activity against Clostridium difficile GAI 10029 by agar dilution method in presence of 5% laked sheep blood; assay type: functional
Fusobacterium varium = assay: Antimicrobial activity against Fusobacterium varium ATCC 8501 by agar dilution method in presence of 5% laked sheep blood; assay type: functional
Prevotella corporis = assay: Antimicrobial activity against Prevotella corporis GAI 91000 by agar dilution method in presence of 5% laked sheep blood; assay type: functional
Gemella morbillorum = assay: Antimicrobial activity against Gemella morbillorum ATCC 27824 by agar dilution method in presence of 5% laked sheep blood; assay type: functional
[2] = tested on: Bacteroides thetaiotaomicron; assay: Antimicrobial activity against Bacteroides thetaiotaomicron ATCC 29741 by agar dilution method in presence of 5% laked sheep blood; assay type: functional
[3] = tested on: Limosilactobacillus reuteri; assay: Antimicrobial activity against Lactobacillus reuteri JCM 1112 by agar dilution method in presence of 5% laked sheep blood; assay type: functional
[4] = tested on: Streptococcus constellatus; assay: Antimicrobial activity against Streptococcus constellatus ATCC 27923 by agar dilution method in presence of 5% laked sheep blood; assay type: functional
[5] = tested on: Paeniclostridium sordellii; assay: Antimicrobial activity against Clostridium sordellii ATCC 9714 by agar dilution method in presence of 5% laked sheep blood; assay type: functional; conditions: Paraclostridium sordellii
[6] = tested on: Propionibacterium granulosum; assay: Antimicrobial activity against Propionibacterium granulosum ATCC 25564 by agar dilution method in presence of 5% laked sheep blood; assay type: functional; conditions: Cutibacterium granulosum
Campylobacter gracilis = assay: Antimicrobial activity against Campylobacter gracilis JCM 8538 by agar dilution method in presence of 5% laked sheep blood; assay type: functional
Bacteroides fragilis [7] = assay: Antimicrobial activity against carbapenemase-producing Bacteroides fragilis GAI 30079 by agar dilution method in presence of 5% laked sheep blood; assay type: functional
Prevotella buccae = assay: Antimicrobial activity against Prevotella buccae ATCC 33574 by agar dilution method in presence of 5% laked sheep blood; assay type: functional; conditions: Segatella buccae
[8] = tested on: Bifidobacterium pseudolongum; assay: Antimicrobial activity against Bifidobacterium pseudolongum ATCC 25526 by agar dilution method in presence of 5% laked sheep blood; assay type: functional
[9] = tested on: Lactiplantibacillus plantarum; assay: Antimicrobial activity against Lactobacillus plantarum JCM 1149 by agar dilution method in presence of 5% laked sheep blood; assay type: functional
Lactobacillus salivarius = assay: Antimicrobial activity against Lactobacillus salivarius subsp. salivarius JCM 1231 by agar dilution method in presence of 5% laked sheep blood; assay type: functional; conditions: Ligilactobacillus salivarius
Phocaeicola vulgatus = assay: Antimicrobial activity against Bacteroides vulgatus GAI 0673 by agar dilution method in presence of 5% laked sheep blood; assay type: functional
Bifidobacterium bifidum = assay: Antimicrobial activity against Bifidobacterium bifidum JCM 1255 by agar dilution method in presence of 5% laked sheep blood; assay type: functional
Porphyromonas gingivalis = assay: Antimicrobial activity against Porphyromonas gingivalis ATCC 33277 by agar dilution method in presence of 5% laked sheep blood; assay type: functional
Prevotella intermedia = assay: Antimicrobial activity against Prevotella intermedia ATCC 25611 by agar dilution method in presence of 5% laked sheep blood; assay type: functional
Atopobium parvulum = assay: Antimicrobial activity against Atopobium parvulum VPI 0546 by agar dilution method in presence of 5% laked sheep blood; assay type: functional; conditions: Lancefieldella parvula
Bacteroides fragilis [10] = assay: Antimicrobial activity against Bacteroides fragilis GAI 0558 by agar dilution method in presence of 5% laked sheep blood; assay type: functional
[11] = tested on: Desulfovibrio desulfuricans; assay: Antimicrobial activity against Desulfovibrio desulfuricans ATCC 29577 by agar dilution method in presence of 5% laked sheep blood; assay type: functional
[12] = tested on: Peptostreptococcus anaerobius; assay: Antimicrobial activity against Peptostreptococcus anaerobius ATCC 27337 by agar dilution method in presence of 5% laked sheep blood; assay type: functional
[13] = tested on: Bacteroides heparinolyticus; assay: Antimicrobial activity against Prevotella heparinolytica ATCC 35895 by agar dilution method in presence of 5% laked sheep blood; assay type: functional
[14] = Antimicrobial activity against Bifidobacterium adolescentis ATCC 15703 by agar dilution method in presence of 5% laked sheep blood; assay type: functional
[15] = Antimicrobial activity against Parabacteroides distasonis ATCC 8503 by agar dilution method in presence of 5% laked sheep blood; assay type: functional
[16] = tested on: Peptoniphilus asaccharolyticus; assay: Antimicrobial activity against Peptoniphilus asaccharolyticus WAL 3218 by agar dilution method in presence of 5% laked sheep blood; assay type: functional
Thomasclavelia ramosa = assay: Antimicrobial activity against Clostridium ramosum ATCC 25582 by agar dilution method in presence of 5% laked sheep blood; assay type: functional
[17] = tested on: Fusobacterium necrophorum; assay: Antimicrobial activity against Fusobacterium necrophorum ATCC 25286 by agar dilution method in presence of 5% laked sheep blood; assay type: functional
[18] = Antimicrobial activity against Desulfovibrio piger DSM 749 by agar dilution method in presence of 5% laked sheep blood; assay type: functional, Desulfovibrio piger ATCC 29098
Bacteroides fragilis [19] = assay: Antimicrobial activity against Bacteroides fragilis GAI 5562 by agar dilution method in presence of 5% laked sheep blood; assay type: functional
Parvimonas micra = assay: Antimicrobial activity against Parvimonas micra VPI 5464-1 by agar dilution method in presence of 5% laked sheep blood; assay type: functional
Prevotella denticola = assay: Antimicrobial activity against Prevotella denticola GAI 5490 by agar dilution method in presence of 5% laked sheep blood; assay type: functional
Bacteroides ovatus = assay: Antimicrobial activity against Bacteroides ovatus ATCC 8483 by agar dilution method in presence of 5% laked sheep blood; assay type: functional
[20] = Antimicrobial activity against Bifidobacterium longum subsp. longum ATCC 15707 by agar dilution method in presence of 5% laked sheep blood; assay type: functional
Prevotella oris = assay: Antimicrobial activity against Prevotella oris ATCC 33573 by agar dilution method in presence of 5% laked sheep blood; assay type: functional; conditions: Segatella oris
[21] = Antimicrobial activity against Finegoldia magna ATCC 29328 by agar dilution method in presence of 5% laked sheep blood; assay type: functional
Bacteroides fragilis [22] = assay: Antimicrobial activity against Bacteroides fragilis NCTC 10581 by agar dilution method in presence of 5% laked sheep blood; assay type: functional
Peptoniphilus indolicus = assay: Antimicrobial activity against Peptoniphilus indolicus GAI 0915 by agar dilution method in presence of 5% laked sheep blood; assay type: functional
[23] = tested on: Porphyromonas asaccharolytica; assay: Antimicrobial activity against Porphyromonas asaccharolyticus ATCC 25260 by agar dilution method in presence of 5% laked sheep blood; assay type: functional; conditions: DSM 20707
Capnocytophaga ochracea = assay: Antimicrobial activity against Capnocytophaga ochracea GAI 5586 by agar dilution method in presence of 5% laked sheep blood; assay type: functional
[24] = tested on: Sutterella wadsworthensis; assay: Antimicrobial activity against Sutterella wadsworthensis ATCC 51579 by agar dilution method in presence of 5% laked sheep blood; assay type: functional
[25] = tested on: Bacteroides eggerthii DSM 20697; assay: Antimicrobial activity against Bacteroides eggerthii ATCC 27754 by agar dilution method in presence of 5% laked sheep blood; assay type: functional
[26] = tested on: Limosilactobacillus fermentum; assay: Antimicrobial activity against Lactobacillus fermentum JCM 1173 by agar dilution method in presence of 5% laked sheep blood; assay type: functional

## CCC[C@@H]1C[C@@H](C(=O)N[C@@H]([C@H]2O[C@H](SC)[C@H](O)[C@@H](O)[C@H]2O)[C@H](C)Cl)N(C)C1 [CLINDAMYCIN]
Bacteroides fragilis [1]
  MIC: 1 µg/mL
Prevotella bivia
  MIC: ≤ 0.03 µg/mL
Clostridioides difficile
  MIC: > 128 µg/mL
Fusobacterium varium
  MIC: 4 µg/mL
Prevotella corporis
  MIC: ≤ 0.03 µg/mL
Gemella morbillorum
  MIC: 0.06 µg/mL
[2]
  MIC: 4 µg/mL
[3]
  MIC: ≤ 0.03 µg/mL
[4]
  MIC: 0.25 µg/mL
[5]
  MIC: 1 µg/mL
[6]
  MIC: ≤ 0.03 µg/mL
Campylobacter gracilis
  MIC: 0.125 µg/mL
Bacteroides fragilis [7]
  MIC: > 128 µg/mL
Prevotella buccae
  MIC: ≤ 0.03 µg/mL
[8]
  MIC: ≤ 0.03 µg/mL
[9]
  MIC: 0.25 µg/mL
Lactobacillus salivarius
  MIC: 0.06 µg/mL
Phocaeicola vulgatus
  MIC: 0.06 µg/mL
Bifidobacterium bifidum
  MIC: ≤ 0.03 µg/mL
Porphyromonas gingivalis
  MIC: ≤ 0.03 µg/mL
Prevotella intermedia
  MIC: ≤ 0.03 µg/mL
Atopobium parvulum
  MIC: 1 µg/mL
Bacteroides fragilis [10]
  MIC: 0.5 µg/mL
[11]
  MIC: 0.5 µg/mL
[12]
  MIC: 0.25 µg/mL
[13]
  MIC: ≤ 0.03 µg/mL
[14]
  MIC: ≤ 0.03 µg/mL
[15]
  MIC: 0.06 µg/mL
[16]
  MIC: > 128 µg/mL
Thomasclavelia ramosa
  MIC: 8 µg/mL
[17]
  MIC: ≤ 0.03 µg/mL
[18]
  MIC: 0.06 µg/mL
Bacteroides fragilis [19]
  MIC: 0.5 µg/mL
Parvimonas micra
  MIC: 0.25 µg/mL
Prevotella denticola
  MIC: ≤ 0.03 µg/mL
Bacteroides ovatus
  MIC: 0.5 µg/mL
[20]
  MIC: ≤ 0.03 µg/mL
Prevotella oris
  MIC: ≤ 0.03 µg/mL
[21]
  MIC: 2 µg/mL
Bacteroides fragilis [22]
  MIC: ≤ 0.03 µg/mL
Peptoniphilus indolicus
  MIC: 32 µg/mL
[23]
  MIC: ≤ 0.03 µg/mL
Capnocytophaga ochracea
  MIC: ≤ 0.03 µg/mL
[24]
  MIC: 16 µg/mL
[25]
  MIC: ≤ 0.03 µg/mL
[26]
  MIC: ≤ 0.03 µg/mL

## C[C@@H](O)[C@H]1C(=O)N2C(C(=O)O)=C(S[C@@H]3CN[C@H](CNS(N)(=O)=O)C3)[C@H](C)[C@H]12 [DORIPENEM]
Bacteroides fragilis [1]
  MIC: 0.5 µg/mL
Prevotella bivia
  MIC: 0.5 µg/mL
Clostridioides difficile
  MIC: 4 µg/mL
Fusobacterium varium
  MIC: 0.5 µg/mL
Prevotella corporis
  MIC: 0.125 µg/mL
Gemella morbillorum
  MIC: ≤ 0.015 µg/mL
[2]
  MIC: 0.5 µg/mL
[3]
  MIC: 0.125 µg/mL
[4]
  MIC: 0.5 µg/mL
[5]
  MIC: ≤ 0.015 µg/mL
[6]
  MIC: 0.5 µg/mL
Campylobacter gracilis
  MIC: 0.125 µg/mL
Bacteroides fragilis [7]
  MIC: > 128 µg/mL
Prevotella buccae
  MIC: 0.25 µg/mL
[8]
  MIC: 0.5 µg/mL
[9]
  MIC: 0.125 µg/mL
Lactobacillus salivarius
  MIC: 0.5 µg/mL
Phocaeicola vulgatus
  MIC: 0.25 µg/mL
Bifidobacterium bifidum
  MIC: 0.125 µg/mL
Porphyromonas gingivalis
  MIC: ≤ 0.015 µg/mL
Prevotella intermedia
  MIC: 0.06 µg/mL
Atopobium parvulum
  MIC: 1 µg/mL
Bacteroides fragilis [10]
  MIC: 0.5 µg/mL
[11]
  MIC: 0.125 µg/mL
[12]
  MIC: 0.5 µg/mL
[13]
  MIC: 0.06 µg/mL
[14]
  MIC: 0.25 µg/mL
[15]
  MIC: 0.5 µg/mL
[16]
  MIC: 0.03 µg/mL
Thomasclavelia ramosa
  MIC: 1 µg/mL
[17]
  MIC: ≤ 0.015 µg/mL
[18]
  MIC: 0.06 µg/mL
Bacteroides fragilis [19]
  MIC: 0.5 µg/mL
Parvimonas micra
  MIC: 0.125 µg/mL
Prevotella denticola
  MIC: 0.06 µg/mL
Bacteroides ovatus
  MIC: 0.5 µg/mL
[20]
  MIC: 1 µg/mL
Prevotella oris
  MIC: 0.125 µg/mL
[21]
  MIC: 0.25 µg/mL
Bacteroides fragilis [22]
  MIC: 0.5 µg/mL
Peptoniphilus indolicus
  MIC: ≤ 0.015 µg/mL
[23]
  MIC: 0.03 µg/mL
Capnocytophaga ochracea
  MIC: 0.125 µg/mL
[24]
  MIC: 0.25 µg/mL
[25]
  MIC: 0.25 µg/mL
[26]
  MIC: 0.06 µg/mL

## Cc1ncc([N+](=O)[O-])n1CCO [METRONIDAZOLE]
Bacteroides fragilis [1]
  MIC: 0.5 µg/mL
Prevotella bivia
  MIC: 2 µg/mL
Clostridioides difficile
  MIC: 0.5 µg/mL
Fusobacterium varium
  MIC: 0.25 µg/mL
Prevotella corporis
  MIC: 0.125 µg/mL
Gemella morbillorum
  MIC: > 128 µg/mL
[2]
  MIC: 1 µg/mL
[3]
  MIC: > 128 µg/mL
[4]
  MIC: > 128 µg/mL
[5]
  MIC: 1 µg/mL
[6]
  MIC: > 128 µg/mL
Campylobacter gracilis
  MIC: 0.5 µg/mL
Bacteroides fragilis [7]
  MIC: 1 µg/mL
Prevotella buccae
  MIC: 0.5 µg/mL
[8]
  MIC: > 128 µg/mL
[9]
  MIC: > 128 µg/mL
Lactobacillus salivarius
  MIC: > 128 µg/mL
Phocaeicola vulgatus
  MIC: 0.25 µg/mL
Bifidobacterium bifidum
  MIC: 4 µg/mL
Porphyromonas gingivalis
  MIC: 0.03 µg/mL
Prevotella intermedia
  MIC: 1 µg/mL
Atopobium parvulum
  MIC: 0.5 µg/mL
Bacteroides fragilis [10]
  MIC: 0.5 µg/mL
[11]
  MIC: 0.06 µg/mL
[12]
  MIC: 0.125 µg/mL
[13]
  MIC: 0.06 µg/mL
[14]
  MIC: 64 µg/mL
[15]
  MIC: 1 µg/mL
[16]
  MIC: 1 µg/mL
Thomasclavelia ramosa
  MIC: 2 µg/mL
[17]
  MIC: 0.125 µg/mL
[18]
  MIC: 0.25 µg/mL
Bacteroides fragilis [19]
  MIC: 1 µg/mL
Parvimonas micra
  MIC: 1 µg/mL
Prevotella denticola
  MIC: 0.25 µg/mL
Bacteroides ovatus
  MIC: 2 µg/mL
[20]
  MIC: 8 µg/mL
Prevotella oris
  MIC: 0.25 µg/mL
[21]
  MIC: 1 µg/mL
Bacteroides fragilis [22]
  MIC: 1 µg/mL
Peptoniphilus indolicus
  MIC: 0.5 µg/mL
[23]
  MIC: 0.25 µg/mL
Capnocytophaga ochracea
  MIC: 1 µg/mL
[24]
  MIC: 1 µg/mL
[25]
  MIC: 0.5 µg/mL
[26]
  MIC: > 128 µg/mL
